# Records with an inconclusive call do not appear. Calls of active or inactive are those of the source. How the calls were made is not given here.
# Molecular target: CAAX prenyl protease 2 (Saccharomyces cerevisiae (strain ATCC 204508 / S288c)) (UniProt Q03530)
# Experiment: Rce1p protease inhibitors, dose response, biochemical, plate reader, cherry-pick (AID 488788)
# Settings: Rce1p enzyme activity, at 10 µM (top of the series)
# Sequence of CAAX prenyl protease 2 (Saccharomyces cerevisiae (strain ATCC 204508 / S288c)) (Q03530 whole entry, looked up): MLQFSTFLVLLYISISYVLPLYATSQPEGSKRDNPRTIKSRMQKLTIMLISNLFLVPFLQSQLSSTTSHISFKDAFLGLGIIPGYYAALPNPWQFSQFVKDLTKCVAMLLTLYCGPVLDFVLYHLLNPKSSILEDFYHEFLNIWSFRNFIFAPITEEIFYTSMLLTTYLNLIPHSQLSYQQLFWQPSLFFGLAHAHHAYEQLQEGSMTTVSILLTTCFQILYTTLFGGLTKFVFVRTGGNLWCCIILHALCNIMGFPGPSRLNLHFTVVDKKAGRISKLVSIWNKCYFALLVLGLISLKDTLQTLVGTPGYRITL
row,Structure (SMILES),"activity change, negative = inhibition"
1,COc1ccc(-c2cc(C(F)(F)F)nc(SCC(=O)NCc3cnn(C)c3C)n2)cc1OC,inactive
2,CCOc1cc(-c2nc3c(C)cccn3c2NCC2CCCO2)ccc1O (stereo unspecified),inactive
3,CC1=CC2=NC(=O)CC(C)(C(=O)N(CC(=O)NC3CCCC3)Cc3ccccc3)N2C=C1 (stereo unspecified),inactive
4,COc1ccc(C)c2sc(NC(=O)C3=COCCO3)nc12,inactive
5,Cc1c(Cl)c([N+](=O)[O-])nn1CC(=O)N1CCCc2ccccc21,inactive
6,C/C(=N\NC(=O)c1ccc(Br)cc1)c1cccc(NC(=O)c2cccnc2)c1,inactive
7,NC(=O)[C@@H]1CC2(CC(c3cccc(NC(=O)CC(c4ccccc4)c4ccccc4)c3)=NO2)CN1C(=O)c1ccc(Cl)cc1 (stereo partly specified),inactive
8,COC(C[C@@H](O)C[C@H](O)[C@H](C)OCc1ccccc1)OC,inactive
9,c1cnn(Cc2cnc(N3CCOCC3)s2)c1,inactive
10,N#CC(/C(=N/S(=O)(=O)c1cccs1)c1ccccc1)c1nc2ccccc2[nH]1 (stereo unspecified),inactive
11,CC1=C(C(=O)OCc2ccccc2)C(c2ccc(-c3ccccc3)cc2)NC(=O)N1CCCC(=O)O (stereo unspecified),inactive
12,COc1cc(OC)cc(-c2ncc3ccccn23)c1,inactive
13,NC(N)=NC(=O)c1nc(Cl)c(N)nc1N,inactive
14,CSc1ccc(C(=O)C2CCCN(C(=O)c3cccnc3SC)C2)cc1 (stereo unspecified),inactive
15,C#CCNC(=O)C1=C[C@@H](C2CCCCC2)C[C@@H](OCc2ccc(CO)cc2)O1,inactive
16,COc1ccc(C)cc1NC(=O)CN1C(=O)COc2ccc(S(=O)(=O)N3CCOCC3)cc21,inactive
17,CC(C)N1CCN(S(=O)(=O)c2ccc3ccccc3c2)CC1,inactive
18,CCc1nc(Nc2ccncc2)c2oc3ccccc3c2n1,inactive
19,CCn1cc(C(=O)NCCO)c(=O)c2cc(F)c(N3CCN(C)CC3)cc21,inactive
20,COc1ccc(-n2c(N)c(C(=O)NCc3ccco3)c3nc4ccccc4nc32)c(OC)c1,inactive
21,Cc1cccc(NC(=O)c2cc(S(=O)(=O)N3CCCCC3)c[nH]2)c1C,inactive
22,O=C(NCCc1c[nH]c2ccccc12)OCCSS(=O)(=O)O,inactive
23,CCNC(=S)NNC(=O)CCn1cc(C)cn1,inactive

row,Structure (SMILES),"activity change, negative = inhibition"
1,Cc1cc(C)n2nc(CC(=O)NNC(=O)c3ccc(N(C)C)cc3)nc2n1,inactive
2,COC(C/C=C/[C@H](O)[C@H](C)OCc1ccccc1)OC,inactive
3,O=C(C1=C[C@@H](C2CC2)C[C@@H](OCc2ccc(CO)cc2)O1)N1CCN(Cc2ccccc2)CC1,inactive
4,COc1cc2c(cc1OC)C(C)N(C(=O)CCNC(=O)c1ccccc1)CC2 (stereo unspecified),inactive
5,CCCCn1c(-c2sccc2C)n[nH]c1=S,inactive
6,COc1cccc(NC(=O)Nc2cccn(Cc3ccc(C)cc3)c2=O)c1,inactive
7,CC(=O)OCC[N+](C)(C)C,inactive
8,CCOC(=O)c1cc(C)[nH]c(=O)c1C#N,inactive
9,O=C1CCCC(O)=C1N=Nc1ccc2ncsc2c1,inactive
10,CCCCNC(=O)C(CC)Sc1nc2sc(C(=O)OC)c(C)c2c(=O)n1N (stereo unspecified),inactive
11,CN1CCN(c2ccc([N+](=O)[O-])c(Sc3nncn3C)c2)CC1,inactive
12,COc1ccc(C(=O)/C=C/c2ccc(OC)cc2OC)c(O)c1,inactive
13,COc1ccc(S(=O)(=O)NCC2CCCO2)cc1NC(=O)c1ccccc1F (stereo unspecified),inactive
14,CC(C)CNC(=O)COc1cccc(C(=O)NCc2ccccc2)c1,inactive
15,O=C(O)CCCC[C@@H]1SC[C@@H]2NC(=O)N[C@@H]21,inactive
16,O=C(CN1CCC(NC(=O)c2ccc(Br)cc2)CC1)NCc1cccs1,inactive
17,O=C(COc1ncnc2cc([N+](=O)[O-])ccc12)NC(=O)NC1CCCCC1,inactive
18,Cc1cc2cc(C(=O)N3CCc4c([nH]c5ccccc45)C3c3ccccn3)ccc2o1 (stereo unspecified),inactive
19,COc1cc2c(cc1OC)C(C)N(C(=O)c1cc3c(=O)oc4ccc(C)cc4c3s1)CC2 (stereo unspecified),inactive
20,CCOC(=O)c1sc2nc(C3CC3)cc(-c3ccc(OC)cc3)c2c1N,inactive
21,O=C1NC(c2ccc(Br)cc2)Nc2ccccc21 (stereo unspecified),inactive
22,CCOC(=O)C[C@H]1c2ccccc2S(=O)(=O)N1Cc1cc(OC)c(OC)c(OC)c1,inactive
23,COc1ccccc1C1=NN(C2=NN=C(N)Cc3ncnn32)C(O)(C(F)(F)F)C1 (stereo unspecified),inactive

row,Structure (SMILES),"activity change, negative = inhibition"
1,COc1ccccc1-n1c(-c2ccccc2)c[nH]c1=S,inactive
2,COc1cc(-c2nc3ccccn3c2/N=C/c2cc(OC)c(OC)c(OC)c2)ccc1O,inactive
3,Cc1ccccc1OC(C)C(=O)N1CCC(Cc2ccccc2)CC1 (stereo unspecified),inactive
4,Cn1c(CN2CCOCC2)c(C#N)c2ccccc21,inactive
5,COc1ccc(/C=N/NC(=O)c2ccc(Cl)cc2)cc1COC(C)=O,inactive
6,c1ccc(C[n+]2cccc3c4ccccc4ccc32)cc1,inactive
7,O=C1NC2(C=Cc3c(ccc4ccccc34)O2)Oc2ccccc21 (stereo unspecified),inactive
8,Cc1cc(C)cc(N2CC(O)=C(c3nc4ccccc4c(=O)[nH]3)C2=N)c1,inactive
9,COc1ccccc1NC(=O)CN(c1ccc(C23CC4CC(CC(C4)C2)C3)cc1)S(C)(=O)=O,inactive
10,Oc1ccc(-c2cn3cc(C(F)(F)F)ccc3n2)cc1,inactive
11,O=C1CN(C(=O)NCC(=O)N2CCCC2)c2ccccc2N1,inactive
12,COc1cc(-c2nc3ccccn3c2/N=C/c2cccc(OC)c2O)ccc1O,inactive
13,CCO[C@@H]1OC(C(=O)N2CCN(Cc3ccccc3)CC2)=C[C@H](c2ccccc2)[C@H]1CCCO,inactive
14,Nc1nc2c(ncn2COC(CO)CO)c(=O)[nH]1,inactive
15,CCn1nc(C)cc1C(=O)NC1CC(C)(C)Cc2c1cnn2-c1cccc(F)c1 (stereo unspecified),inactive
16,O=C(COc1ccccc1)Nc1cccc(-c2nc3cc4ccccc4cc3[nH]2)c1,inactive
17,COc1ccc(OC)c(/C=N/c2c(-c3ccc(O)c(OC)c3)nc3ccccn23)c1,inactive
18,COCCNc1nc(N)c([N+](=O)[O-])c(N2CCCCCC2)n1,inactive
19,Cc1ccc(C(=O)N/C(=C/c2ccco2)C(=O)Nc2cccc(C(=O)O)c2)cc1,inactive
20,CC(=O)N[C@@H](C)c1nc2ccccc2n1CCCN1CCN(c2nc(-c3ccc(C)cc3)cs2)CC1,inactive
21,Cn1c(=O)c(C(=O)NCCO)c(O)c2ccccc21,inactive
22,O=C(O)c1ccc(N/N=C/c2ccc(-c3ccccc3Cl)o2)cc1,inactive
23,CCOc1ccc(NC(=O)CCSc2ccc(C)cc2)cc1,inactive

row,Structure (SMILES),"activity change, negative = inhibition"
1,COc1cc(-c2nc3ccccn3c2/N=C/c2ccccc2)ccc1O,inactive
2,CC(=O)c1c(O)cc(O)c(C(C)=O)c1O,inactive
3,Cc1nccc2c1[nH]c1ccccc12,inactive
4,CCn1cc(C(=O)N[C@H](C)c2ccccc2)c(=O)c2cc(F)c(N3CCN(C)CC3)cc21,inactive
5,Cc1cc(C(=O)N[C@H](c2ccccc2)[C@@]2(C)C[C@@H]2[C@@H](C)C(=O)Nc2ccc3ccccc3c2)n(C)n1,inactive
6,Nc1ccccc1Oc1ccc2ccccc2c1,inactive
7,CCOc1ccccc1CNC(=O)c1cc2occc2n1C,inactive
8,CC(=O)OCC(=O)[C@@]12OC3(CCCC3)O[C@@H]1C[C@H]1[C@@H]3CCC4=CC(=O)C=C[C@]4(C)[C@@]3(F)[C@@H](O)C[C@@]12C,inactive
9,Cc1nc(N2CCOCC2)c2cc(-c3ccccc3)sc2n1,inactive
10,O=[N+]([O-])c1cc(S(=O)(=O)N2CCCC2)ccc1NN=C1CCCCC1,inactive
11,CC(C)c1cccc(OCC(=O)Nc2ccc(S(=O)(=O)Nc3ccccn3)cc2)c1,inactive
12,CCOC(=O)c1nnn2c1nc(N1CCOCC1)c1ccccc12,inactive
13,COCCn1cc(C(=O)NCCN(C)C)c2c3ccccc3n(C)c2c1=O,inactive
14,CC(Cc1cccs1)NC(=O)Nc1ccc([N+](=O)[O-])cc1 (stereo unspecified),inactive
15,Cc1ccc(C(=O)N2N=C(c3ccccc3O)CC2c2ccccc2)cc1 (stereo unspecified),inactive
16,CC(=O)c1c(C)[nH]c(C(=O)OCc2ccc(Br)cc2)c1C,inactive
17,CCOc1ccc(N(CC(=O)NC2CC3CCC2C3)S(=O)(=O)c2ccccc2)cc1 (stereo unspecified),inactive
18,C=CCn1c(O)c(C(CC)=Nc2ccc(N(CC)CC)cc2)c(=O)[nH]c1=O,inactive
19,COc1nc(-c2ccccc2)ccc1-c1noc(-c2ccccc2F)n1,inactive
20,NS(=O)(=O)c1ccc(NC(=O)/C=C/c2cn(-c3ccccc3)nc2-c2cccc(Cl)c2)cc1,inactive
21,CCOc1cc(CNC2CCCC2)ccc1OCc1ccccc1Cl,inactive
22,CC(=O)N1c2ccc([N+](=O)[O-])cc2NC(=O)CC1C (stereo unspecified),inactive

# — PubChem BioAssay AID488788 (Broad Institute, 2010)
